Assay results: patent publication US20250311722A1, “IMPROVED BIOCIDE” (Purgos ApS, priority 2022, published 2025)
Where “and” joins values, the source holds several entries; their conditions need not be identical. Identical values can stand only once.

Key:
Test in all cases: Minimal inhibitory concentration (MIC)
Type in all cases: cell-based
[1] = system: Salmonella Infantis ISI 170
Experimental: (§1) Minimum inhibitory concentrations (MICs) are defined as the lowest concentration of an antimicrobial that will inhibit the visible growth of a microorganism after a standardized incubation. In the present study, MIC assay was performed by pipetting robot. The principle is that an indicator microorganism at a defined cell density is cultured with a range of concentrations of the test compound, one concentration pr, well in a row on the microtiter plate. For bacteria and yeasts the minimal inhibitory concentration was detected as no increase of optical density (OD), for moulds microtiter plates were read visually. Each indicator organism is tested in duplicate and the MIC is calculated as the average of the two determinations. The tested concentrations of the antimicrobial substances were 2-fold dilutions from 5%. All indicator organisms (see Table 2.) were pre-cultivated in a suitable growth medium and diluted in the same medium to give a final concentration in the assay of ˜1×10^3 cfu/ml. The microtiter plates were incubated under specific incubation conditions (see Table III). [table]

[2] = system: Pseudomonas aeruginosa ISI 1462
Experimental: as §1

[3] = system: Leuconostoc mesenteroides ISI 504
Experimental: as §1

[4] = system: Lactobacillus brevis ISI 2269
Experimental: as §1

Bacillus cereus ISI 842 = system: Bacillus cereus ISI 842
Experimental: as §1

[5] = system: Listeria monocytogenes ISI 22
Experimental: as §1

[6] = system: Streptococcus termophilus ISI 1563
Experimental: as §1

[7] = system: Debaryomyces hansenii ISI 12
Experimental: as §1

Aspergillus niger ISI 3 = system: Aspergillus niger ISI 3
Experimental: as §1

[8] = system: Candida albicans ISI 1226
Experimental: as §1

## CCCCN(CCO)CCO [NBDA, N-butyldiethanolamine]
[1]
  MIC (%): 1.25%
[1]; 0.02% NBDA
  MIC data (optical density): 1.662 and 1.413
[1]; 0.04% NBDA
  MIC data (optical density): 1.501 and 1.629
[1]; 0.08% NBDA
  MIC data (optical density): 1.640 and 1.623
[1]; 0.16% NBDA
  MIC data (optical density): 1.566 and 1.546
[1]; 0.31% NBDA
  MIC data (optical density): 1.389 and 1.282
[1]; 0.63% NBDA
  MIC data (optical density): 0.905 and 0.965
[1]; 1.25% NBDA
  MIC data (optical density): 0.046 and 0.040
[1]; 2.50% NBDA
  MIC data (optical density): 0.047 and 0.044
[1]; 5.00% NBDA
  MIC data (optical density): 0.044 and 0.043
[2]
  MIC (%): 0.63%
[2]; 0.02% NBDA
  MIC data (optical density): 1.725 and 1.921
[2]; 0.04% NBDA
  MIC data (optical density): 1.894 and 1.661
[2]; 0.08% NBDA
  MIC data (optical density): 1.938 and 1.871
[2]; 0.16% NBDA
  MIC data (optical density): 1.888 and 1.911
[2]; 0.31% NBDA
  MIC data (optical density): 1.668 and 1.319
[2]; 0.63% NBDA
  MIC data (optical density): 0.047 and 0.044
[2]; 1.25% NBDA
  MIC data (optical density): 0.045 and 0.043
[2]; 2.50% NBDA
  MIC data (optical density): 0.046 and 0.047
[2]; 5.00% NBDA
  MIC data (optical density): 0.045
[3]
  MIC (%): 0.31%
[3]; 0.02% NBDA
  MIC data (optical density): 1.025 and 0.943
[3]; 0.04% NBDA
  MIC data (optical density): 1.135 and 1.104
[3]; 0.08% NBDA
  MIC data (optical density): 1.005 and 1.027
[3]; 0.16% NBDA
  MIC data (optical density): 1.065 and 0.990
[3]; 0.31% NBDA
  MIC data (optical density): 0.051 and 0.052
[3]; 0.63% NBDA
  MIC data (optical density): 0.047 and 0.049
[3]; 1.25% NBDA
  MIC data (optical density): 0.046 and 0.047
[3]; 2.50% NBDA
  MIC data (optical density): 0.046
[3]; 5.00% NBDA
  MIC data (optical density): 0.044 and 0.041
[4]
  MIC (%): 0.16%
[4]; 0.02% NBDA
  MIC data (optical density): 0.509 and 0.458
[4]; 0.04% NBDA
  MIC data (optical density): 0.468 and 0.485
[4]; 0.08% NBDA
  MIC data (optical density): 0.465 and 0.586
[4]; 0.16% NBDA
  MIC data (optical density): 0.054 and 0.057
[4]; 0.31% NBDA
  MIC data (optical density): 0.049 and 0.048
[4]; 0.63% NBDA
  MIC data (optical density): 0.047 and 0.046
[4]; 1.25% NBDA
  MIC data (optical density): 0.047 and 0.045
[4]; 2.50% NBDA
  MIC data (optical density): 0.046 and 0.049
[4]; 5.00% NBDA
  MIC data (optical density): 0.043 and 0.040
Bacillus cereus ISI 842
  MIC (%): 1.25%
Bacillus cereus ISI 842; 0.02% NBDA
  MIC data (optical density): 0.797 and 0.933
Bacillus cereus ISI 842; 0.04% NBDA
  MIC data (optical density): 0.953 and 0.926
Bacillus cereus ISI 842; 0.08% NBDA
  MIC data (optical density): 0.880 and 0.764
Bacillus cereus ISI 842; 0.16% NBDA
  MIC data (optical density): 0.716 and 0.833
Bacillus cereus ISI 842; 0.31% NBDA
  MIC data (optical density): 0.811 and 0.739
Bacillus cereus ISI 842; 0.63% NBDA
  MIC data (optical density): 0.664 and 0.824
Bacillus cereus ISI 842; 1.25% NBDA
  MIC data (optical density): 0.108 and 0.143
Bacillus cereus ISI 842; 2.50% NBDA
  MIC data (optical density): 0.100 and 0.145
Bacillus cereus ISI 842; 5.00% NBDA
  MIC data (optical density): 0.087 and 0.120
[5]
  MIC (%): 1.25%
[5]; 0.02% NBDA
  MIC data (optical density): 1.182 and 1.216
[5]; 0.04% NBDA
  MIC data (optical density): 1.184 and 1.216
[5]; 0.08% NBDA
  MIC data (optical density): 1.165 and 1.119
[5]; 0.16% NBDA
  MIC data (optical density): 1.074 and 0.574
[5]; 0.31% NBDA
  MIC data (optical density): 1.027 and 0.645
[5]; 0.63% NBDA
  MIC data (optical density): 0.938 and 0.759
[5]; 1.25% NBDA
  MIC data (optical density): 0.047 and 0.048
[5]; 2.50% NBDA
  MIC data (optical density): 0.046 and 0.056
[5]; 5.00% NBDA
  MIC data (optical density): 0.045 and 0.056
[6]
  MIC (%): 0.63%
[6]; 0.02% NBDA
  MIC data (optical density): 0.57 and 0.515
[6]; 0.04% NBDA
  MIC data (optical density): 0.445 and 0.473
[6]; 0.08% NBDA
  MIC data (optical density): 0.431 and 0.462
[6]; 0.16% NBDA
  MIC data (optical density): 0.444 and 0.438
[6]; 0.31% NBDA
  MIC data (optical density): 0.115 and 0.108
[6]; 0.63% NBDA
  MIC data (optical density): 0.046 and 0.043
[6]; 1.25% NBDA
  MIC data (optical density): 0.044 and 0.045
[6]; 2.50% NBDA
  MIC data (optical density): 0.049
[6]; 5.00% NBDA
  MIC data (optical density): 0.041 and 0.042
[7]
  MIC (%): 1.25%
[7]; 0.02% NBDA
  MIC data (optical density): 1.027 and 1.215
[7]; 0.04% NBDA
  MIC data (optical density): 0.964 and 1.224
[7]; 0.08% NBDA
  MIC data (optical density): 0.974 and 1.114
[7]; 0.16% NBDA
  MIC data (optical density): 0.975 and 1.145
[7]; 0.31% NBDA
  MIC data (optical density): 0.877 and 0.973
[7]; 0.63% NBDA
  MIC data (optical density): 0.619 and 0.582
[7]; 1.25% NBDA
  MIC data (optical density): 0.047
[7]; 2.50% NBDA
  MIC data (optical density): 0.045 and 0.046
[7]; 5.00% NBDA
  MIC data (optical density): 0.044 and 0.043
Aspergillus niger ISI 3
  MIC (%): 0.63%
[8]
  MIC (%): 0.63%
[8]; 0.02% NBDA
  MIC data (optical density): 1.272 and 1.291
[8]; 0.04% NBDA
  MIC data (optical density): 1.243 and 1.259
[8]; 0.08% NBDA
  MIC data (optical density): 1.223 and 1.256
[8]; 0.16% NBDA
  MIC data (optical density): 1.118 and 1.134
[8]; 0.31% NBDA
  MIC data (optical density): 0.886 and 0.984
[8]; 0.63% NBDA
  MIC data (optical density): 0.056
[8]; 1.25% NBDA
  MIC data (optical density): 0.051 and 0.050
[8]; 2.50% NBDA
  MIC data (optical density): 0.047 and 0.046
[8]; 5.00% NBDA
  MIC data (optical density): 0.042 and 0.044
